# Reference: patent publication US9340590B2 (priority 2011, dated 2016)
# Read-outs that look alike come from different tables or passages of the source. Positions of bridges follow the written chain, without caps; N, C: chain ends. Residues, ends and D or L forms follow the SMILES beside them.
# Columns and labels:
# Experiment in all cases: cell-based
# hNav1.5 = hNav1.5 (Homo sapiens, UniProt Q14524)
# hNav1.7 = hNav1.7 (Homo sapiens, UniProt Q15858); assay type: cell-based
# hNav1.3 = hNav1.3 (Homo sapiens, UniProt Q9NY46); settings: IonWorks Quattro, read-out: IWQ Use Nav1.3
# [1] = IonWorks Quattro, Use, read-out: IWQ Use Nav1.5
# hNav1.3, sequence (Q9NY46 whole entry, looked up): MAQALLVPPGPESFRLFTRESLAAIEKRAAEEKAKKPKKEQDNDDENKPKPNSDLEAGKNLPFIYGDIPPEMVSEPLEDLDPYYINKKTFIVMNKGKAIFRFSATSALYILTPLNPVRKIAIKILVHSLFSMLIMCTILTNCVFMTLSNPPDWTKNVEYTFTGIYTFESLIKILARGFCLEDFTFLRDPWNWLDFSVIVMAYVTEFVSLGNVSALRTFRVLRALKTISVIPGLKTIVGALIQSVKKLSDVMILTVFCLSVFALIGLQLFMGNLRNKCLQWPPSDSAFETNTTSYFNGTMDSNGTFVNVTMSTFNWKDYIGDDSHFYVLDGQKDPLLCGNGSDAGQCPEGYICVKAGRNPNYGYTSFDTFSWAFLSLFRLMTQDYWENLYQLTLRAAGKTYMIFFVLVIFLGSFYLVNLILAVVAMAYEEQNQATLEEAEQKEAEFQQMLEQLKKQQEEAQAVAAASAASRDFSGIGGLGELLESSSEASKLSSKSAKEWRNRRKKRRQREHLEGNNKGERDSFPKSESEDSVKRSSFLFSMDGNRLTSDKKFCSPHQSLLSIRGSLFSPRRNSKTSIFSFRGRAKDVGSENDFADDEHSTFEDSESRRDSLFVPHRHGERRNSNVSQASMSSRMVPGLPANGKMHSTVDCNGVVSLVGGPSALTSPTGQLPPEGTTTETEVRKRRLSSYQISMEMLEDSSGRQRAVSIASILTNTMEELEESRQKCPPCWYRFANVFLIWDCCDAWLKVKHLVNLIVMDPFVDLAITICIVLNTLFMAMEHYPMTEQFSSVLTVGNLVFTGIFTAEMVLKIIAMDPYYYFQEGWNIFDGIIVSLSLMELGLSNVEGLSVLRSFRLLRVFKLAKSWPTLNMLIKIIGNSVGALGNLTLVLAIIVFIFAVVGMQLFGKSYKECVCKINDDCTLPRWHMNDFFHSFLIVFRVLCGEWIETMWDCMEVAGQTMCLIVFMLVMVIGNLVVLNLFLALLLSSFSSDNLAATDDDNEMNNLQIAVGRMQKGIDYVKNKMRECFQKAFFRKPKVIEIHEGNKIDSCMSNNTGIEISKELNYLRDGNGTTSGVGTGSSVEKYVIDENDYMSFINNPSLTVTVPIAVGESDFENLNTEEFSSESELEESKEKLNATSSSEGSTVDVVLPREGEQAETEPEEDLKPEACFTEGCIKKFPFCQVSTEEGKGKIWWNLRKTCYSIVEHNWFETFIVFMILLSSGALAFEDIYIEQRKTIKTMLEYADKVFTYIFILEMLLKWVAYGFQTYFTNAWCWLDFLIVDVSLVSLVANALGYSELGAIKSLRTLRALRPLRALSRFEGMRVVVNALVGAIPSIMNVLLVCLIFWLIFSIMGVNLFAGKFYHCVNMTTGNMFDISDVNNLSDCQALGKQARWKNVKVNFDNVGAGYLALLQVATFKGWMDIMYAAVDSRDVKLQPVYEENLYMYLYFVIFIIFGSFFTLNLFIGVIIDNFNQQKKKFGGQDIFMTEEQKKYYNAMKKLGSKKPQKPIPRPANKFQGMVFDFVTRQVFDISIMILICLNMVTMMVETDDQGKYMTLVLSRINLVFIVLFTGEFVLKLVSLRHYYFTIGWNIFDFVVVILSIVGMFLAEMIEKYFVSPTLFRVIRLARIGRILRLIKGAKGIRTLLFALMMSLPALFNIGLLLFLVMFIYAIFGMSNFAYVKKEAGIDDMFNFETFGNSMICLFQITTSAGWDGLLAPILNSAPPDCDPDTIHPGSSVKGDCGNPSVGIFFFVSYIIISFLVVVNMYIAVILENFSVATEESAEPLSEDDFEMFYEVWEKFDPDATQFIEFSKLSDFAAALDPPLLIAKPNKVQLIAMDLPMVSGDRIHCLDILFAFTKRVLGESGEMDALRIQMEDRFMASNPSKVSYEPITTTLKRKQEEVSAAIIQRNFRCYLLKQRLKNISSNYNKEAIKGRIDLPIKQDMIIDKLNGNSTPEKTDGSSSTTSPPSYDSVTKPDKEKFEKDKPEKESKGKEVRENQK
# hNav1.7, sequence (Q15858 whole entry, looked up): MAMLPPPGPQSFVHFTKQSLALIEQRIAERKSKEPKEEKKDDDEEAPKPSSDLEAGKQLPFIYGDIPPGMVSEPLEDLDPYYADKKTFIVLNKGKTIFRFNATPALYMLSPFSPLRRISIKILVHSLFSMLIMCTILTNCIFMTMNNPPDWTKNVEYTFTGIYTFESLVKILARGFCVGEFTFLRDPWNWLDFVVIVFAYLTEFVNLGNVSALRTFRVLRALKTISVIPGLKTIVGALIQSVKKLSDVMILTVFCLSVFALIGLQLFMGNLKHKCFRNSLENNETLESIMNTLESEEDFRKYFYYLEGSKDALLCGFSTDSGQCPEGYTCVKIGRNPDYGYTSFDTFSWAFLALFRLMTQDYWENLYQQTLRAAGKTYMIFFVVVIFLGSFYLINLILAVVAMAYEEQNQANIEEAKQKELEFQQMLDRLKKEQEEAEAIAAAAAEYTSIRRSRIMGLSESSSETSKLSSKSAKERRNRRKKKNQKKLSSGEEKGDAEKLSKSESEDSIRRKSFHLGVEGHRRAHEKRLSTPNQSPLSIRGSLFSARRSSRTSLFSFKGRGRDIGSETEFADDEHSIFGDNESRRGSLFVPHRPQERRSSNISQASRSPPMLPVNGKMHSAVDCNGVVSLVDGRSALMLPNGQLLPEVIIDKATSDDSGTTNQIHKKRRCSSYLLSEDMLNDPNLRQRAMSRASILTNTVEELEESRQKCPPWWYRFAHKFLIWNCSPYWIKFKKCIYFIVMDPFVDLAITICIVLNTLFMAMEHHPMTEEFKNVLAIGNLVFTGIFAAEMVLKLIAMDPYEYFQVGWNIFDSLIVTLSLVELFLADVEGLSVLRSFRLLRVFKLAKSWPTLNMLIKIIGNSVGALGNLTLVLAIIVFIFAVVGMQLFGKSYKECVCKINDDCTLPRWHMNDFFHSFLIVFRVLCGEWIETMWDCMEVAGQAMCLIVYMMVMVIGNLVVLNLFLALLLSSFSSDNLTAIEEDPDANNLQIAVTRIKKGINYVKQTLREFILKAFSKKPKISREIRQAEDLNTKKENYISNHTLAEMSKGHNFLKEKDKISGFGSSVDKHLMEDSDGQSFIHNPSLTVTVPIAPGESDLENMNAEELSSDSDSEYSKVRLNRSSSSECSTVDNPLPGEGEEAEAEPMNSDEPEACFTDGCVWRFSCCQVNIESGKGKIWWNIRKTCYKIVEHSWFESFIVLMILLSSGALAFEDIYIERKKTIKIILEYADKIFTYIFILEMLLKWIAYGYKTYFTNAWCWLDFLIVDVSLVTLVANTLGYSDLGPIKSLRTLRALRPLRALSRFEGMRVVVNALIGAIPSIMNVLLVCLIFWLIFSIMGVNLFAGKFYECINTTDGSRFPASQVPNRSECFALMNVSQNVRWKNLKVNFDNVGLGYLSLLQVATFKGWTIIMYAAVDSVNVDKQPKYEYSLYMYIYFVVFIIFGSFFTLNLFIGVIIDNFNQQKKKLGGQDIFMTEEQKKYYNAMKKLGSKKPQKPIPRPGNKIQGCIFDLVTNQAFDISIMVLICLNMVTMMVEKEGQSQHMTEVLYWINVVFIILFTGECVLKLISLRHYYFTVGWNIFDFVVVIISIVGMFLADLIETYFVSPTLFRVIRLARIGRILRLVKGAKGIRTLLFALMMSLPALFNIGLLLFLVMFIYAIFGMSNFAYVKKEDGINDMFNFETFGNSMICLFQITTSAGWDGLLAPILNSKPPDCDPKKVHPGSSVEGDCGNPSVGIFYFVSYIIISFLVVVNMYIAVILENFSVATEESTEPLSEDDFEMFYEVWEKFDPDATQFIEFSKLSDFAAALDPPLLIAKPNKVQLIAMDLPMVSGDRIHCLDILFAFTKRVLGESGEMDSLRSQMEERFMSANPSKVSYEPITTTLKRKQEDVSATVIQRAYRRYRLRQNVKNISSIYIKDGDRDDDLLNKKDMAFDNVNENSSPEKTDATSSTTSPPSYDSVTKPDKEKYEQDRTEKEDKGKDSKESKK
smiles,measurement,setting,value
"CC[C@H](C)[C@@H]1NC(=O)[C@@H]2CSSC[C@@H]3NC(=O)[C@H](C(C)C)NC(=O)[C@H](CC(C)C)NC(=O)[C@H](CC(N)=O)NC(=O)[C@@H]4CCCN4C(=O)[C@H](CCCNC(=N)N)NC(=O)[C@H](CSSC[C@H](NC(=O)[C@@H](N)CC(=O)O)C(=O)N[C@@H](CC(C)C)C(=O)NCC(=O)N[C@@H](Cc4ccccc4)C(=O)N[C@@H](CCSC)C(=O)N[C@@H](CCCNC(=N)N)C(=O)N[C@@H](CCCCN)C(=O)N2)NC(=O)[C@H](CSSC[C@@H](C(=O)N[C@@H](CCCCN)C(=O)N[C@@H](Cc2ccc(O)cc2)C(=O)N[C@H](C(=O)N[C@@H](Cc2ccccc2)C(N)=O)C(C)C)NC(=O)[C@H](Cc2c[nH]c4ccccc24)NC(=O)[C@H](CCCCN)NC(=O)[C@H](Cc2c[nH]cn2)NC(=O)[C@H]([C@@H](C)O)NC(=O)[C@H](CCCNC(=N)N)NC(=O)[C@H](CO)NC3=O)NC(=O)[C@H](CCC(=O)O)NC(=O)[C@H](CC(=O)O)NC(=O)[C@H](CC(N)=O)NC(=O)[C@H](CC(=O)O)NC(=O)[C@@H]2CCCN2C1=O [compound 28] (H-DCLGFMRKCIPDNDECCRPNLVCSRTHKWCKYVF-NH2; disulfide 2-17, 9-23, 16-30)",IC50,hNav1.5; [1],12.1 µM
same,IC50,hNav1.7,0.59 µM
same,IC50,hNav1.3; Use,0.49 µM
"CC[C@H](C)[C@@H]1NC(=O)[C@@H]2CSSC[C@@H]3NC(=O)[C@H](C(C)C)NC(=O)[C@H](CC(C)C)NC(=O)[C@H](CC(N)=O)NC(=O)[C@@H]4CCCN4C(=O)[C@H](CCCNC(=N)N)NC(=O)[C@H](CSSC[C@H](NC(=O)[C@@H](N)CC(=O)O)C(=O)N[C@@H](CC(C)C)C(=O)NCC(=O)N[C@@H](Cc4ccccc4)C(=O)N[C@@H](CCSC)C(=O)N[C@@H](CCCNC(=N)N)C(=O)N[C@@H](CCCCN)C(=O)N2)NC(=O)[C@H](CSSC[C@@H](C(=O)N[C@@H](CCCCN)C(=O)N[C@@H](Cc2ccc(O)cc2)C(=O)N[C@H](C(=O)N[C@@H](Cc2ccccc2)C(N)=O)C(C)C)NC(=O)[C@H](Cc2c[nH]c4ccccc24)NC(=O)[C@H](CCCCN)NC(=O)[C@H](CCC(=O)O)NC(=O)[C@H]([C@@H](C)O)NC(=O)[C@H](CCCNC(=N)N)NC(=O)[C@H](CO)NC3=O)NC(=O)[C@H](CCCCN)NC(=O)[C@H](CC(=O)O)NC(=O)[C@H](CC(N)=O)NC(=O)[C@H](CC(=O)O)NC(=O)[C@@H]2CCCN2C1=O [compound 29] (H-DCLGFMRKCIPDNDKCCRPNLVCSRTEKWCKYVF-NH2; disulfide 2-17, 9-23, 16-30)",IC50,"hNav1.5; Table 23, IonWorks Quattro, use, […], read-out: IWQ Use Nav1.5",15.2 µM
same,IC50,"hNav1.7; Table 23, IonWorks Quattro, use, […], read-out: IWQ Use Nav1.7",8.54 µM
same,IC50,"hNav1.3; Table 23, use, […]",12.3 µM
"CC[C@H](C)[C@@H]1NC(=O)[C@@H]2CSSC[C@@H]3NC(=O)[C@H](C(C)C)NC(=O)[C@H](CC(C)C)NC(=O)[C@H](CC(N)=O)NC(=O)[C@@H]4CCCN4C(=O)[C@H](CCCNC(=N)N)NC(=O)[C@H](CSSC[C@H](NC(=O)[C@@H](N)CC(=O)O)C(=O)N[C@@H](CC(C)C)C(=O)NCC(=O)N[C@@H](Cc4ccccc4)C(=O)N[C@@H](CCSC)C(=O)N[C@@H](CCCNC(=N)N)C(=O)N[C@@H](CCCCN)C(=O)N2)NC(=O)[C@H](CSSC[C@@H](C(=O)N[C@@H](CCC(=O)O)C(=O)N[C@@H](Cc2ccc(O)cc2)C(=O)N[C@H](C(=O)N[C@@H](Cc2ccccc2)C(N)=O)C(C)C)NC(=O)[C@H](Cc2c[nH]c4ccccc24)NC(=O)[C@H](CCCCN)NC(=O)[C@H](Cc2cnc[nH]2)NC(=O)[C@H]([C@@H](C)O)NC(=O)[C@H](CCCNC(=N)N)NC(=O)[C@H](CO)NC3=O)NC(=O)[C@H](CCCCN)NC(=O)[C@H](CC(=O)O)NC(=O)[C@H](CC(N)=O)NC(=O)[C@H](CC(=O)O)NC(=O)[C@@H]2CCCN2C1=O [compound 31] (H-DCLGFMRKCIPDNDKCCRPNLVCSRTHKWCEYVF-NH2; disulfide 2-17, 9-23, 16-30)",IC50,"hNav1.5; Table 25, IonWorks Quattro, use, […], read-out: IWQ Use Nav1.5",21.7 µM
same,IC50,"hNav1.7; Table 25, IonWorks Quattro, use, […], read-out: IWQ Use Nav1.7",23 µM
same,IC50,"hNav1.3; Table 25, use, […]",13.1 µM
"CC[C@H](C)[C@@H]1NC(=O)[C@@H]2CSSC[C@@H]3NC(=O)[C@H](C(C)C)NC(=O)[C@H](CC(C)C)NC(=O)[C@H](CC(N)=O)NC(=O)[C@@H]4CCCN4C(=O)[C@H](CCCNC(=N)N)NC(=O)[C@H](CSSC[C@H](NC(=O)[C@@H](N)CC(=O)O)C(=O)N[C@@H](CC(C)C)C(=O)NCC(=O)N[C@@H](Cc4ccccc4)C(=O)N[C@@H](CCSC)C(=O)N[C@@H](CCCNC(=N)N)C(=O)N[C@@H](CCCCN)C(=O)N2)NC(=O)[C@H](CSSC[C@@H](C(=O)N[C@@H](CCCCN)C(=O)N[C@@H](Cc2ccc(O)cc2)C(=O)N[C@H](C(=O)N[C@@H](CCC(=O)O)C(N)=O)C(C)C)NC(=O)[C@H](Cc2c[nH]c4ccccc24)NC(=O)[C@H](CCCCN)NC(=O)[C@H](Cc2cnc[nH]2)NC(=O)[C@H]([C@@H](C)O)NC(=O)[C@H](CCCNC(=N)N)NC(=O)[C@H](CO)NC3=O)NC(=O)[C@H](CCCCN)NC(=O)[C@H](CC(=O)O)NC(=O)[C@H](CC(N)=O)NC(=O)[C@H](CC(=O)O)NC(=O)[C@@H]2CCCN2C1=O [compound 34] (H-DCLGFMRKCIPDNDKCCRPNLVCSRTHKWCKYVE-NH2; disulfide 2-17, 9-23, 16-30)",IC50,hNav1.5; IWQ Use Nav1.5 (μM),16.8 µM
same,IC50,"hNav1.7; IonWorks Quattro, use-dependent, […], read-out: IWQ Use Nav1.7",17 µM
same,IC50,"hNav1.3; use-dependent, […]",11.2 µM
CC[C@H](C)[C@@H]1NC(=O)[C@@H]2CSSC[C@@H]3NC(=O)[C@H](C(C)C)NC(=O)[C@H](CC(C)C)NC(=O)[C@H](CC(N)=O)NC(=O)[C@@H]4CCCN4C(=O)[C@H](CCCNC(=N)N)NC(=O)[C@H](CSSC[C@H](NC(=O)[C@@H](N)CC(=O)O)C(=O)N[C@@H](CC(C)C)C(=O)NCC(=O)N[C@@H](Cc4ccccc4)C(=O)N[C@@H](CCSC)C(=O)N[C@@H](CCCNC(=N)N)C(=O)N[C@@H](CCCCN)C(=O)N2)NC(=O)[C@H](CSSC[C@@H](C(=O)N[C@@H](CCCCN)C(=O)N[C@@H](Cc2ccc(O)cc2)C(=O)N[C@H](C(=O)N[C@@H](Cc2ccccc2)C(=O)N[C@@H](CCC(=O)O)C(N)=O)C(C)C)NC(=O)[C@H](Cc2c[nH]c4ccccc24)NC(=O)[C@H](CCCCN)NC(=O)[C@H](Cc2c[nH]cn2)NC(=O)[C@H]([C@@H](C)O)NC(=O)[C@H](CCCNC(=N)N)NC(=O)[C@H](CO)NC3=O)NC(=O)[C@H](CCCCN)NC(=O)[C@H](CC(=O)O)NC(=O)[C@H](CC(N)=O)NC(=O)[C@H](CC(=O)O)NC(=O)[C@@H]2CCCN2C1=O [compound 35],IC50,hNav1.5; IWQ Use Nav1.5 (μM),19.6 µM
same,IC50,"hNav1.7; IonWorks Quattro, use-dependent, […], read-out: IWQ Use Nav1.7 (μm)",4.47 µM
same,IC50,"hNav1.3; use-dependent, […]",2.47 µM
"CSCC[C@@H]1NC(=O)[C@H](Cc2ccccc2)NC(=O)CNC(=O)[C@H](CC(C)C)NC(=O)[C@@H](NC(=O)[C@@H](N)CC(=O)O)CSSC[C@@H]2NC(=O)[C@@H]3CSSC[C@@H](C(=O)N[C@@H](CCCCN)C(=O)N[C@@H](Cc4ccc(O)cc4)C(=O)N[C@H](C(=O)N[C@@H](Cc4ccccc4)C(N)=O)C(C)C)NC(=O)[C@H](Cc4c[nH]c5ccccc45)NC(=O)[C@H](CCCCN)NC(=O)[C@H](Cc4cnc[nH]4)NC(=O)[C@H]([C@@H](C)O)NC(=O)[C@H](CCCNC(=N)N)NC(=O)[C@H](CO)NC(=O)[C@H](CSSC[C@H](NC(=O)[C@H](CCCCN)NC(=O)[C@H](CCCNC(=N)N)NC1=O)C(=O)N[C@@H](CCCCN)C(=O)N1CCC[C@H]1C(=O)N[C@@H](CC(=O)O)C(=O)N[C@@H](CC(N)=O)C(=O)N[C@@H](CC(=O)O)C(=O)N[C@@H](CCCCN)C(=O)N3)NC(=O)[C@H](C(C)C)NC(=O)[C@H](CC(C)C)NC(=O)[C@H](CC(N)=O)NC(=O)[C@@H]1CCCN1C(=O)[C@H](CCCNC(=N)N)NC2=O [compound 41] (H-DCLGFMRKCKPDNDKCCRPNLVCSRTHKWCKYVF-NH2; disulfide 2-17, 9-23, 16-30)",IC50,hNav1.5; [1],9 µM
same,IC50,"hNav1.7; IonWorks Quattro, Use, read-out: IWQ Use Nav1.7",0.24 µM
same,IC50,hNav1.3; Use,0.15 µM
